{
  "source": "patent US20250073248A1",
  "about": "“BIORESORBABLE CATIONIC STEROIDAL ANTIMICROBIAL COMPOUNDS WITH GLYCERIDE LINKAGES” (BRIGHAM YOUNG UNIVERSITY, priority 2023, published 2025)",
  "key": {"C. auris CDC 386": {"test_system": "C. auris CDC 386", "test": "MIC/MFC of CSA-4110, fungi (Table 4)", "assay_type": "cell-based, Candida auris", "conditions": "Candidozyma auris, CDC386", "description": "(§1) All compounds were screened against these pathogens to determine their minimum inhibitory concentration (MIC), minimum bactericidal concentration (MBC), and minimum fungicidal concentration (MFC) using a broth microdilution method. […] Of these three, only CSA-4110 was similarly active against PA01and CA, inhibiting growth at 8 μg/mL.\n(§2) CSA-4110 was evaluated further against a broader range of bacterial and fungal strains. Acinetobacter baumannii and several isolates of Staphylococcus aureus, Klebsiella pneumoniae, and Candida auris were selected, further broadening the coverage of high and critical priority pathogens. Streptococcus uberis, Staphylococcus pseudintermedius, Proteus mirabilis, and Escherichia coli were also screened to obtain a more complete efficacy profile. […] For comparison, previous work established the MICs of CSA-131 against strains of Staphylococcus aureus, Pseudomonas aeruginosa, and Candida albicans at 0.5-2 μg/mL"}, "C. auris CDC 382": {"test_system": "C. auris CDC 382", "test": "MIC/MFC of CSA-4110, fungi (Table 4)", "assay_type": "cell-based, Candida auris", "conditions": "Candidozyma auris, CDC382", "description": "as §1, §2"}, "C. auris CDC 387": {"test_system": "C. auris CDC 387", "test": "MIC/MFC of CSA-4110, fungi (Table 4)", "assay_type": "cell-based, Candida auris", "conditions": "Candidozyma auris, CDC387", "description": "as §1, §2"}, "C. auris CDC 383": {"test_system": "C. auris CDC 383", "test": "MIC/MFC of CSA-4110, fungi (Table 4)", "assay_type": "cell-based, Candida auris", "conditions": "Candidozyma auris, CDC383", "description": "as §1, §2"}, "C. auris CDC 389": {"test_system": "C. auris CDC 389", "test": "MIC/MFC of CSA-4110, fungi (Table 4)", "assay_type": "cell-based, Candida auris", "conditions": "Candidozyma auris, CDC389", "description": "as §1, §2"}, "[1]": {"test_system": "Pseudomonas aeruginosa 01 (PA01)", "test": "MIC and MBC, broth microdilution, PA01 (Table 1)", "assay_type": "cell-based", "conditions": "Pseudomonas aeruginosa", "description": "To investigate the antimicrobial impact of structural variance in the novel bioresorbable CSA compounds disclosed herein,Pseudomonas aeruginosa 01 (PA01), methicillin-resistant Staphylococcus aureus (MRSA), and Candida albicans (CA) were selected, representing Gram-negative bacterial, Gram-positive bacterial, and fungal pathogens of high or critical priority on the world health organization's priority lists for bacteria and fungi. Earlier applications of CSA compounds have focused on preventing medical device infections, and all three strains are commonly found in colonized implants, making efficacy against these pathogens an important indicator of future applicability.\nas §1"}, "P. mirabilis ATCC 29906": {"test_system": "P. mirabilis ATCC 29906", "test": "MIC/MBC of CSA-4110, Gram negative bacteria (Table 3)", "assay_type": "cell-based", "conditions": "Proteus mirabilis, ATCC29906", "description": "as §1, §2\nPM is a Gram-negative organism which is occasionally found in urinary tract infections in individuals with functional or anatomical anomalies. It is often noted for its ability to modulate its susceptibility to cationic biocides primarily through modifications to its efflux system and the structure of lipopolysaccharide, a negatively charged endotoxin located in the outer membrane. This can provide insight into the mechanism-of-action for CSA-4110. […]"}, "[2]": {"test_system": "broader range of bacterial and fungal strains", "test": "CSA-4110 against a broader range of bacterial and fungal strains (summary of Tables 2-4)", "assay_type": "cell-based", "description": "as §1, §2"}, "S. aureus ATCC 25923": {"test_system": "S. aureus ATCC 25923", "test": "MIC/MBC of CSA-4110, Gram positive bacteria (Table 2)", "assay_type": "cell-based", "conditions": "Staphylococcus aureus, ATCC25923", "description": "as §1, §2"}, "S. aureus ATCC 27734": {"test_system": "S. aureus ATCC 27734", "test": "MIC/MBC of CSA-4110, Gram positive bacteria (Table 2)", "assay_type": "cell-based", "conditions": "Staphylococcus aureus, ATCC27734", "description": "as §1, §2"}, "S. aureus ATCC 6538": {"test_system": "S. aureus ATCC 6538", "test": "MIC/MBC of CSA-4110, Gram positive bacteria (Table 2)", "assay_type": "cell-based", "conditions": "Staphylococcus aureus, ATCC6538", "description": "as §1, §2"}, "MRSA ATCC BAA-42": {"test_system": "MRSA ATCC BAA-42", "test": "MIC/MBC of CSA-4110, Gram positive bacteria (Table 2)", "assay_type": "cell-based", "conditions": "Staphylococcus aureus", "description": "as §1, §2"}, "[3]": {"test_system": "S. psuedintermedius ATCC 49444", "test": "MIC/MBC of CSA-4110, Gram positive bacteria (Table 2)", "assay_type": "cell-based", "conditions": "Staphylococcus pseudintermedius, ATCC49444", "description": "as §1, §2"}, "S. uberis ATCC 27958": {"test_system": "S. uberis ATCC 27958", "test": "MIC/MBC of CSA-4110, Gram positive bacteria (Table 2)", "assay_type": "cell-based", "conditions": "Streptococcus uberis, ATCC27958", "description": "as §1, §2"}, "E. coli ATCC 25922": {"test_system": "E. coli ATCC 25922", "test": "MIC/MBC of CSA-4110, Gram negative bacteria (Table 3)", "assay_type": "cell-based", "conditions": "Escherichia coli, ATCC25922", "description": "as §1, §2"}, "K. pneumoniae ATCC 13883": {"test_system": "K. pneumoniae ATCC 13883", "test": "MIC/MBC of CSA-4110, Gram negative bacteria (Table 3)", "assay_type": "cell-based", "conditions": "Klebsiella pneumoniae, ATCC13883", "description": "as §1, §2"}, "[4]": {"test_system": "P. aeruginosa 01 ATCC 47085", "test": "MIC/MBC of CSA-4110, Gram negative bacteria (Table 3)", "assay_type": "cell-based", "conditions": "Pseudomonas aeruginosa, ATCC47085", "description": "as §1, §2"}, "P. aeruginosa ATCC 27853": {"test_system": "P. aeruginosa ATCC 27853", "test": "MIC/MBC of CSA-4110, Gram negative bacteria (Table 3)", "assay_type": "cell-based", "conditions": "Pseudomonas aeruginosa, ATCC27853", "description": "as §1, §2"}, "K. pneumoniae ARLG 1360": {"test_system": "K. pneumoniae ARLG 1360", "test": "MIC/MBC of CSA-4110, Gram negative bacteria (Table 3)", "assay_type": "cell-based", "conditions": "Klebsiella pneumoniae, ARLG1360", "description": "as §1, §2"}, "[5]": {"test_system": "K. pneumoniae ATCC BAA-1706", "test": "MIC/MBC of CSA-4110, Gram negative bacteria (Table 3)", "assay_type": "cell-based", "conditions": "Klebsiella pneumoniae, ATCCBAA1706", "description": "as §1, §2"}, "A. baumannii ATCC 19606": {"test_system": "A. baumannii ATCC 19606", "test": "MIC/MBC of CSA-4110, Gram negative bacteria (Table 3)", "assay_type": "cell-based", "conditions": "Acinetobacter baumannii, ATCC19606", "description": "as §1, §2"}, "[6]": {"conditions": "all strains of Tables 2-4 except Proteus mirabilis"}},
  "data": [
    {"smiles": "CCCCCCCCCC(=O)OCC(O)COC(=O)CC[C@@H](C)[C@H]1CC[C@H]2[C@@H]3[C@H](OC(=O)CCN)C[C@@H]4C[C@H](OC(=O)CCN)CC[C@]4(C)[C@H]3C[C@H](OC(=O)CCN)[C@]12C", "note": "(stereo partly shown) [CSA-4110]", "values": [
      {"measurement": "MBC", "setting": "C. auris CDC 386", "result": 16, "unit": "µg/mL"},
      {"measurement": "MIC", "setting": "C. auris CDC 386", "result": 8, "unit": "µg/mL"},
      {"measurement": "MBC", "setting": "C. auris CDC 382", "result": 16, "unit": "µg/mL"},
      {"measurement": "MIC", "setting": "C. auris CDC 382", "result": 8, "unit": "µg/mL"},
      {"measurement": "MBC", "setting": "C. auris CDC 387", "result": 16, "unit": "µg/mL"},
      {"measurement": "MIC", "setting": "C. auris CDC 387", "result": 8, "unit": "µg/mL"},
      {"measurement": "MBC", "setting": "C. auris CDC 383", "result": 16, "unit": "µg/mL"},
      {"measurement": "MIC", "setting": "C. auris CDC 383", "result": 8, "unit": "µg/mL"},
      {"measurement": "MBC", "setting": "C. auris CDC 389", "result": 16, "unit": "µg/mL"},
      {"measurement": "MIC", "setting": "C. auris CDC 389", "result": 8, "unit": "µg/mL"},
      {"measurement": "MBC", "setting": "[1]; MBC, value in parentheses", "result": 32, "unit": "µg/mL"},
      {"measurement": "MIC", "setting": "[1]; first value of cell", "result": 8, "unit": "µg/mL"},
      {"measurement": "MBC", "setting": "P. mirabilis ATCC 29906", "result": 64, "unit": "µg/mL"},
      {"measurement": "MIC", "setting": "P. mirabilis ATCC 29906", "result": 16, "unit": "µg/mL"},
      {"measurement": "MBCs/MFCs, range over the strains", "setting": "[2]; [6]", "result": "2 to 16", "unit": "µg/mL"},
      {"measurement": "MICs, range over the strains", "setting": "[2]; [6]", "result": "2 to 8", "unit": "µg/mL"},
      {"measurement": "MICs, range as restated in the CMC paragraph", "setting": "[2]; compared with CMC", "result": "2 to 8", "unit": "g/mL"},
      {"measurement": "MBC", "setting": "S. aureus ATCC 25923", "result": 8, "unit": "µg/mL"},
      {"measurement": "MIC", "setting": "S. aureus ATCC 25923", "result": 4, "unit": "µg/mL"},
      {"measurement": "MBC", "setting": "S. aureus ATCC 27734", "result": 4, "unit": "µg/mL"},
      {"measurement": "MIC", "setting": "S. aureus ATCC 27734", "result": 4, "unit": "µg/mL"},
      {"measurement": "MBC", "setting": "S. aureus ATCC 6538", "result": 8, "unit": "µg/mL"},
      {"measurement": "MIC", "setting": "S. aureus ATCC 6538", "result": 4, "unit": "µg/mL"},
      {"measurement": "MBC", "setting": "MRSA ATCC BAA-42", "result": 2, "unit": "µg/mL"},
      {"measurement": "MIC", "setting": "MRSA ATCC BAA-42", "result": 2, "unit": "µg/mL"},
      {"measurement": "MBC", "setting": "[3]", "result": 4, "unit": "µg/mL"},
      {"measurement": "MIC", "setting": "[3]", "result": 4, "unit": "µg/mL"},
      {"measurement": "MBC", "setting": "S. uberis ATCC 27958", "result": 4, "unit": "µg/mL"},
      {"measurement": "MIC", "setting": "S. uberis ATCC 27958", "result": 2, "unit": "µg/mL"},
      {"measurement": "MBC", "setting": "E. coli ATCC 25922", "result": 4, "unit": "µg/mL"},
      {"measurement": "MIC", "setting": "E. coli ATCC 25922", "result": 4, "unit": "µg/mL"},
      {"measurement": "MBC", "setting": "K. pneumoniae ATCC 13883", "result": 2, "unit": "µg/mL"},
      {"measurement": "MIC", "setting": "K. pneumoniae ATCC 13883", "result": 2, "unit": "µg/mL"},
      {"measurement": "MBC", "setting": "[4]", "result": 8, "unit": "µg/mL"},
      {"measurement": "MIC", "setting": "[4]", "result": 4, "unit": "µg/mL"},
      {"measurement": "MBC", "setting": "P. aeruginosa ATCC 27853", "result": 8, "unit": "µg/mL"},
      {"measurement": "MIC", "setting": "P. aeruginosa ATCC 27853", "result": 4, "unit": "µg/mL"},
      {"measurement": "MBC", "setting": "K. pneumoniae ARLG 1360", "result": 8, "unit": "µg/mL"},
      {"measurement": "MIC", "setting": "K. pneumoniae ARLG 1360", "result": 8, "unit": "µg/mL"},
      {"measurement": "MBC", "setting": "[5]", "result": 4, "unit": "µg/mL"},
      {"measurement": "MIC", "setting": "[5]", "result": 4, "unit": "µg/mL"},
      {"measurement": "MBC", "setting": "A. baumannii ATCC 19606", "result": 4, "unit": "µg/mL"},
      {"measurement": "MIC", "setting": "A. baumannii ATCC 19606", "result": 4, "unit": "µg/mL"}
    ]}
  ]
}
